“And” between values parts separate entries of the source, which are not always exact repeats. Equal values may be shown once. Inconclusive results and toxic doses are left out.
System: P388 leukemia ip, CD2F1 mice, survival T/C
Test: NCI In Vivo Anticancer Drug Screen. Data for tumor model P388 Leukemia (intraperitoneal) in CD2F1 (CDF1) mice
Details: endpoint: median survival time, higher = longer survival
Outline: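 Mice carrying the transplanted tumor received test compound or vehicle. Survival was recorded in each group, and the value is the treated-group measurement divided by that of the vehicle-treated control group.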

[1] = dose: 50.0 mg/kg/injection, schedule: Q01DX009 (ip), vehicle: saline
[2] = dose: 100.0 mg/kg/injection, schedule: Q01DX009 (ip), vehicle: saline
[3] = dose: 50.0 mg/kg/injection, schedule: Q01DX009 (ip), vehicle: water
[4] = dose: 100.0 mg/kg/injection, schedule: Q04DX003 (ip), vehicle: Klucel (hydroxypropylcellulose) (HPC)
[5] = dose: 200.0 mg/kg/injection, schedule: Q04DX003 (ip), vehicle: Klucel (hydroxypropylcellulose) (HPC)
[6] = dose: 50.0 mg/kg/injection, schedule: Q01DX005 (ip), vehicle: saline with Tween-80
[7] = dose: 50.0 mg/kg/injection, schedule: Q01DX009 (ip), vehicle: saline with Tween-80
[8] = dose: 100.0 mg/kg/injection, schedule: Q01DX009 (ip), vehicle: saline with Tween-80
[9] = dose: 60.0 mg/kg/injection, schedule: Q01DX005 (ip), vehicle: Klucel (hydroxypropylcellulose) (HPC)
[10] = dose: 120.0 mg/kg/injection, schedule: Q01DX005 (ip), vehicle: Klucel (hydroxypropylcellulose) (HPC)
[11] = dose: 100.0 mg/kg/injection, schedule: Q04DX002 (ip), vehicle: saline with Tween-80
[12] = dose: 240.0 mg/kg/injection, schedule: Q01DX005 (ip), vehicle: Klucel (hydroxypropylcellulose) (HPC)

N.N.O=C([O-])/C=C\C(=O)[O-].[Pt]
T/C (dose: 4.38 mg/kg/injection, schedule: Q04DX002 (ip), vehicle: saline with Tween-80): 117 % of control

O=c1oc2ccccc2n1P(=O)(N1CCOCC1)N1CCOCC1
T/C [1]: 100 % of control
T/C [2]: 98 % of control
T/C (dose: 200.0 mg/kg/injection, schedule: Q01DX009 (ip), vehicle: saline): 95 % of control

N=c1c2ccn(C3OC(CO)C(O)C3O)c2ncn1N (stereo not drawn)
T/C (dose: 6.25 mg/kg/injection, schedule: Q01DX009 (ip), vehicle: water): 117 % of control
T/C [3]: 121 % of control

CN(c1ccccc1)c1cc2c(cc1[N+](=O)[O-])no[n+]2[O-]
T/C (dose: 7.5 mg/kg/injection, schedule: Q01DX009 (ip), vehicle: saline): 100 % of control and 86 % of control and 97 % of control
T/C (dose: 15.0 mg/kg/injection, schedule: Q01DX009 (ip), vehicle: saline): 107 % of control and 94 % of control
T/C (dose: 30.0 mg/kg/injection, schedule: Q01DX009 (ip), vehicle: saline): 105 % of control and 95 % of control
T/C (dose: 60.0 mg/kg/injection, schedule: Q01DX009 (ip), vehicle: saline): 100 % of control and 101 % of control and 92 % of control

N#CC12C3C4C5C3C1n1c(=O)n(-c3ccccc3)c(=O)n1C5C42 (stereo not drawn)
T/C [4]: 106 % of control
T/C [5]: 106 % of control
T/C (dose: 400.0 mg/kg/injection, schedule: Q04DX003 (ip), vehicle: Klucel (hydroxypropylcellulose) (HPC)): 107 % of control

Cc1cc(C)c2c(=O)n(-c3ccc(Br)cc3)c(=S)n(-c3ccc(Br)cc3)c2n1
T/C (dose: 12.5 mg/kg/injection, schedule: Q01DX005 (ip), vehicle: saline with Tween-80): 99 % of control
T/C (dose: 25.0 mg/kg/injection, schedule: Q01DX005 (ip), vehicle: saline with Tween-80): 97 % of control
T/C [6]: 87 % of control and 95 % of control

CN1CCC(c2ccccc2)(c2ccccc2)OC1
T/C (dose: 25.0 mg/kg/injection, schedule: Q01DX009 (ip), vehicle: saline): 100 % of control
T/C [1]: 100 % of control
T/C [2]: 113 % of control

O=C(O)C1CSC2(CCCCC2)N1 (stereo not drawn)
T/C (dose: 50.0 mg/kg/injection, schedule: Q04DX003 (ip), vehicle: saline): 104 % of control
T/C (dose: 100.0 mg/kg/injection, schedule: Q04DX003 (ip), vehicle: saline): 95 % of control
T/C (dose: 200.0 mg/kg/injection, schedule: Q04DX003 (ip), vehicle: saline): 99 % of control
T/C (dose: 400.0 mg/kg/injection, schedule: Q04DX003 (ip), vehicle: saline): 96 % of control

Cc1cc(=O)n2c(n1)Nc1ccc(Cl)cc1C2
T/C [7]: 100 % of control
T/C [8]: 98 % of control

C1CCOCCOCCOCCOCCOCCCCCC2(CC1)OCCO2
T/C [6]: 96 % of control
T/C (dose: 100.0 mg/kg/injection, schedule: Q01DX005 (ip), vehicle: saline with Tween-80): 94 % of control
T/C (dose: 200.0 mg/kg/injection, schedule: Q01DX005 (ip), vehicle: saline with Tween-80): 96 % of control

Cc1noc(-c2ccccc2)c1N=Nc1ccccc1
T/C (dose: 100.0 mg/kg/injection, schedule: Q01DX001 (ip), vehicle: Klucel (hydroxypropylcellulose) (HPC)): 99 % of control
T/C (dose: 200.0 mg/kg/injection, schedule: Q01DX001 (ip), vehicle: Klucel (hydroxypropylcellulose) (HPC)): 105 % of control
T/C (dose: 400.0 mg/kg/injection, schedule: Q01DX001 (ip), vehicle: Klucel (hydroxypropylcellulose) (HPC)): 93 % of control

COC(=O)C12CCc3cc(OC)ccc3C1=CC(=O)C2 (stereo not drawn)
T/C (dose: 50.0 mg/kg/injection, schedule: Q04DX003 (ip), vehicle: saline with Tween-80): 101 % of control
T/C (dose: 100.0 mg/kg/injection, schedule: Q04DX003 (ip), vehicle: saline with Tween-80): 105 % of control
T/C (dose: 200.0 mg/kg/injection, schedule: Q04DX003 (ip), vehicle: saline with Tween-80): 100 % of control
T/C (dose: 400.0 mg/kg/injection, schedule: Q04DX003 (ip), vehicle: saline with Tween-80): 100 % of control

CCOC(=O)c1c(C(=O)Nc2ccccc2)c(-c2ccccc2)n(NC(=O)c2cccc(Cl)c2)c1C
T/C [9]: 98 % of control
T/C [10]: 94 % of control

COc1cccc2c1C(=O)c1c(O)c3c(c(O)c1C2=O)CC(O)(C1(O)CSC(C)=N1)CC3O (stereo not drawn)
T/C (dose: 1.56 mg/kg/injection, schedule: Q01DX009 (ip), vehicle: other): 102 % of control
T/C (dose: 3.13 mg/kg/injection, schedule: Q01DX009 (ip), vehicle: other): 104 % of control
T/C (dose: 6.25 mg/kg/injection, schedule: Q01DX009 (ip), vehicle: other): 104 % of control
T/C (dose: 12.5 mg/kg/injection, schedule: Q01DX009 (ip), vehicle: other): 105 % of control
T/C (dose: 25.0 mg/kg/injection, schedule: Q01DX009 (ip), vehicle: other): 98 % of control
T/C (dose: 25.0 mg/kg/injection, schedule: Q01DX009 (ip), vehicle: water): 101 % of control
T/C [3]: 101 % of control
T/C (dose: 100.0 mg/kg/injection, schedule: Q01DX009 (ip), vehicle: water): 121 % of control

N#Cc1ccc(=O)[nH]c1O
T/C [7]: 99 % of control
T/C [8]: 100 % of control

CN(C)C1CC(N2c3ccccc3Sc3ccc(Cl)cc32)C1 (stereo not drawn)
T/C (dose: 50.0 mg/kg/injection, schedule: Q04DX003 (ip), vehicle: Klucel (hydroxypropylcellulose) (HPC)): 107 % of control
T/C [4]: 104 % of control
T/C [5]: 107 % of control

O=C(/C=C/c1ccccc1)O[C@@H]1CC2CC1C[C@H]2c1cnc[nH]1 (stereo partly drawn)
T/C (dose: 25.0 mg/kg/injection, schedule: Q04DX002 (ip), vehicle: saline with Tween-80): 100 % of control
T/C (dose: 50.0 mg/kg/injection, schedule: Q04DX002 (ip), vehicle: saline with Tween-80): 101 % of control
T/C [11]: 92 % of control

CCOC(=O)NC1=C(N2CC2)C(=O)C(NC(=O)OCC)=C(N2CC2)C1=O
T/C (dose: 0.5 mg/kg/injection, schedule: Q01DX005 (iv), vehicle: saline): 110 % of control
T/C (dose: 2.59 mg/kg/injection, schedule: Q04DX002 (ip), vehicle: saline): 160 % of control
T/C (dose: 3.0 mg/kg/injection, schedule: Q01DX005 (ip), vehicle: saline with Tween-80): 216 % of control
T/C (dose: 4.0 mg/kg/injection, schedule: Q01DX005 (ip), vehicle: saline): 200 % of control
T/C (dose: 4.9 mg/kg/injection, schedule: Q01DX005 (ip), vehicle: saline with Tween-80): 211 % of control and 259 % of control
T/C (dose: 8.0 mg/kg/injection, schedule: Q04DX003 (iv), vehicle: saline with Tween-80): 160 % of control
T/C (dose: 8.1 mg/kg/injection, schedule: Q01DX005 (ip), vehicle: saline with Tween-80): 75 % of control
T/C (dose: 12.0 mg/kg/injection, schedule: Q04DX002 (ip), vehicle: saline): 277 % of control
T/C (dose: 22.5 mg/kg/injection, schedule: Q01DX001 (ip), vehicle: saline with Tween-80): 62 % of control
T/C (dose: 37.5 mg/kg/injection, schedule: Q01DX001 (ip), vehicle: saline with Tween-80): 100 % of control and 58 % of control

Cc1cc(=O)oc2nc(-c3ccccc3)[nH]c(=O)c12
T/C [9]: 86 % of control
T/C [10]: 100 % of control
T/C [12]: 91 % of control

C=CCC12CC(OC)C(O)CC1(O)OC(c1cc(OC)c(OC)c(OC)c1)C2C (stereo not drawn)
T/C (dose: 1.25 mg/kg/injection, schedule: Q01DX005 (ip), vehicle: acid diluted with saline): 115 % of control
T/C (dose: 2.5 mg/kg/injection, schedule: Q01DX005 (ip), vehicle: acid diluted with saline): 100 % of control
T/C (dose: 5.0 mg/kg/injection, schedule: Q01DX005 (ip), vehicle: acid diluted with saline): 93 % of control
T/C (dose: 10.0 mg/kg/injection, schedule: Q01DX005 (ip), vehicle: acid diluted with saline): 106 % of control

c1cnc2ncncc2n1
T/C [7]: 104 % of control and 111 % of control
T/C [8]: 120 % of control
T/C (dose: 200.0 mg/kg/injection, schedule: Q01DX009 (ip), vehicle: saline with Tween-80): 150 % of control

CC1=NOC(=O)C1N=Nc1ccc(Br)cc1C (stereo not drawn)
T/C [11]: 101 % of control
T/C (dose: 100.0 mg/kg/injection, schedule: Q05DX002 (ip), vehicle: saline with Tween-80): 99 % of control
T/C (dose: 200.0 mg/kg/injection, schedule: Q04DX002 (ip), vehicle: saline with Tween-80): 98 % of control
T/C (dose: 200.0 mg/kg/injection, schedule: Q05DX002 (ip), vehicle: saline with Tween-80): 99 % of control
T/C (dose: 400.0 mg/kg/injection, schedule: Q04DX002 (ip), vehicle: saline with Tween-80): 102 % of control

O[C@H]1c2cccn2-c2ccccc2S[C@H]1c1ccccc1
T/C [9]: 91 % of control
T/C [10]: 94 % of control
T/C [12]: 102 % of control

C=C1CC2(C)CCC(OC(=O)C3(C)OC3C)C(C)(OC(C)=O)C2CC1=C(C)C (stereo not drawn)
T/C (dose: 150.0 mg/kg/injection, schedule: Q01DX001 (ip), vehicle: Klucel (hydroxypropylcellulose) (HPC)): 99 % of control
T/C (dose: 300.0 mg/kg/injection, schedule: Q01DX001 (ip), vehicle: Klucel (hydroxypropylcellulose) (HPC)): 98 % of control

From PubChem BioAssay AID330 (DTP/NCI, 2004)
